A melting point compilation (Tetko et al.; mined from patent text by program, amines drawn as free bases though some values may be those of a salt)

Molecule `Cc1ncc(C#N)c(Nc2ccc3[nH]ccc3c2C)c1I` has a melting point of 222 to 223 °C.
Molecule `CCCCCCOc1ccc(-n2cc(C(=O)OCC)cn2)cc1C#N` has a melting point of 93 to 94 °C.
In the case of `Cc1cc(C(C)(CC(=O)c2ccccc2)c2ccccc2)ccc1O` (stereo unspecified), the melting point is reported as 137 °C.
For `COc1ccc2ccnc(Cl)c2c1`, the melting point was 77 to 78 °C.
For `COC(=O)CCNc1cc(Oc2ccc(Cl)cc2Cl)ccc1[N+](=O)[O-]`, the melting point was 115 °C.
With `CN1C(=O)N(c2ccc(C#N)c(C(F)(F)F)c2)C(=O)C1(CO)c1ccccc1` (stereo unspecified) the melting point was 160 °C.
`O=C(Cc1ccc(OCc2ccccc2)cc1)P(=O)(O)O` showed a melting point of 112 to 113 °C.
With `OC(CCN1CC=C(c2ccccc2)CC1)c1ccc(CCc2ccc(Cl)cc2)cc1` (stereo unspecified) the melting point was 158 to 160 °C.
`O=C(Oc1ccccc1)N1Cc2ccccc2C(Oc2ccc(C(F)(F)F)cc2)C1` (stereo unspecified) showed a melting point of 72 °C.
`CC(C)(C)c1cc(CCC(=O)OC2CCCCCCCCCCC2OC(=O)CCc2cc(C(C)(C)C)c(O)c(C(C)(C)C)c2)cc(C(C)(C)C)c1O` (stereo unspecified) showed a melting point of 61 to 74 °C.
For `COCCOCCN1C(=O)C2(COc3cc4c(cc32)OCCO4)c2c(OC)ccc(OC)c21` (stereo unspecified), the melting point was 109 to 110 °C.
Molecule `Cc1cc(S(=O)(=O)c2ccc(N)cc2)cc(N(C)C)n1` has a melting point of 157 to 159 °C.
For `COC(=O)c1nc(Br)c(F)c(NC(C)=O)c1Cl`, the melting point was 190 to 192 °C.
`CC(=O)C1=CC(C)(C)C=CC1` gave a melting point of 27 to 30 °C.
With `CCCS(=O)(=O)c1sc(C(N)=O)c2c1-c1c(cnn1CC)CC2` the melting point was 143 to 144 °C.
`COP(=O)(OC)C(O)C(CC1CCCCC1)NC(=O)C(CC(C)C)NC(=O)OC(C)(C)C` (stereo unspecified) showed a melting point of 157 °C.
Work on `CC(C)(C)c1ccc(SC(CCl)S(=O)(=O)c2ccc(Cl)cc2)cc1` (stereo unspecified) yielded a melting point of 52 to 68 °C.
With `CCC(CCOC)n1cc(Cl)nc(N2CCc3cc(Cl)cc(Cl)c32)c1=O` (stereo unspecified) the melting point was 95 to 97 °C.
In the case of `COC(=O)c1ccc2[nH]c(S)nc2n1`, the melting point is reported as 233 to 234 °C.
Work on `O=[N+]([O-])c1ccccc1S(=O)(=O)c1ccccc1` yielded a melting point of 145 to 146 °C.
`Cc1ccc2c(c1)Oc1sc(C)cc1C(=O)N2` gave a melting point of 211 to 215 °C.
With `CN(C(=O)c1sc2cc(C(=O)O)ccc2c1S)c1ccc2sc3ccccc3c(=O)c2c1` the melting point was 210 to 212 °C.
For `Cn1nnnc1CC(O)(c1ccccc1)c1ccc(F)cc1` (stereo unspecified), the melting point was 113 to 114 °C.
Work on `CCCCS(=O)(=O)NC(CNC(=O)c1cccc(C(=O)C2CCC3(CCNCC3)CC2)c1)C(=O)O` (stereo unspecified) yielded a melting point of 155 to 157 °C.
`CC(C)(C)c1cc(CN(c2cccnc2)S(=O)(=O)c2cccc(Br)c2)cc(C(C)(C)C)c1O` gave a melting point of 129 to 131 °C.
Molecule `O=C(Nc1ccccc1)c1ccc(CSc2ccc(O)cc2)cc1` has a melting point of 220 to 222 °C.
With `CCc1c(C(=O)NNC(=O)C(O)c2cc(F)cc(F)c2)ccc(OC)c1C` (stereo unspecified) the melting point was 197 °C.
Work on `Cc1ccc(S(=O)(=O)n2ccc3c(CBr)cccc32)cc1` yielded a melting point of 113 to 134 °C.
With `Cc1noc(NS(=O)(=O)c2ccccc2-c2c[nH]c3ccccc23)c1C` the melting point was 184 to 186 °C.
`CCCCCCC(C)(C)c1ccc([C@@H]2CC(=O)C[C@@H](C#N)C2)c(OCc2ccccc2)c1` (relative stereo) showed a melting point of 79 °C.
`COc1cccc(NC(=O)c2ccc([N+](=O)[O-])cc2)c1` showed a melting point of 189 to 191 °C.
Work on `NCc1c(CN(Cc2ccccc2)Cc2ccccc2)cccc1C(F)(F)C(F)(F)c1ccccc1` yielded a melting point of 172 to 174 °C.
For `CC(C)Oc1nc(N)nc2c1ncn2C1CC(N=[N+]=[N-])C(CO)O1` (stereo unspecified), the melting point was 195 to 197 °C.
With `COc1cccc(-c2ccnc(Nc3cccc(OC(F)(F)C(F)F)c3)n2)c1` the melting point was 103 to 104 °C.
Molecule `Cc1ccc(N(C)CCC(C)NCC(O)c2ccc(O)c(C(N)=O)c2)cc1` (stereo unspecified) has a melting point of 123 to 126 °C.
Work on `CCCCOCCOc1ccc(-c2ccc3c(c2)C=C(C(=O)Nc2ccc(/C(Cc4nccn4CCC)=N/O)cc2)CCN3CC(C)C)cc1` yielded a melting point of 154 °C.
With `CCOC(=O)C1CCc2c(sc3ccc(C)cc23)C1` (stereo unspecified) the melting point was 68 to 69 °C.
With `Cc1cc(NC(=O)OC(C)(C)C)c([N+](=O)[O-])cc1I` the melting point was 99 to 100 °C.
`O=C1Nc2ccc(F)c(F)c2[C@@](C#CC2CC2)(C(F)(F)F)O[C@H]1C1CC1` (relative stereo) showed a melting point of 222 °C.
In the case of `CCOC(=O)C=Cc1ccc(NC(=O)OC(C)(C)C)cc1`, the melting point is reported as 105 to 109 °C.
Molecule `COc1ccccc1N1CCN(CCNc2ccccc2C(C)=O)CC1` has a melting point of 92 to 94 °C.
Work on `CS(=O)CC(=NC1CCCCC1)c1ccccc1O` (stereo unspecified) yielded a melting point of 133 to 134 °C.
In the case of `CC(=O)Nc1nc2c(sc(=O)n2C2OC(COC(C)=O)C(OC(C)=O)C2OC(C)=O)c(=O)[nH]1` (stereo unspecified), the melting point is reported as 247 to 248 °C.
`Cc1cc(C)cc(OC(=O)C(c2ccccc2)N2CCN(C3CCN(C(=O)c4cc(C(F)(F)F)cc(C(F)(F)F)c4)C(Cc4ccccc4)C3)CC2)c1` (stereo unspecified) gave a melting point of 88.1 °C.
With `CCc1cc(Oc2ccc(C(F)(F)F)cc2[N+](=O)[O-])nn1C(=O)NC` the melting point was 89 to 91 °C.
With `O=C(O)c1ccc(C(F)(F)F)nc1C=CCCl` the melting point was 137 to 138 °C.
`CCOC(=O)c1cnc(N(C)Cc2cc3nc(-c4cccc(OCCO)c4)nc(N4CCOCC4)c3s2)nc1` gave a melting point of 216 to 220 °C.
In the case of `COc1ccc(C)cc1NC(=O)Nc1ccc(N2CCN(C(=O)Nc3ccc(OCCO)cc3C)CC2)nc1`, the melting point is reported as 189 to 190 °C.
`Cc1ccc(C=CC(=O)CCCCCl)cc1` gave a melting point of 79 to 82 °C.
Molecule `CN1CCC(c2cccc3c2C[C@H](NC(=O)c2ccc(N4CCOCC4)cc2)CC3)CC1` has a melting point of 196 to 198 °C.
With `COC(=O)c1ccc(OCC=O)cc1` the melting point was 58 to 60 °C.
For `Nc1ncc(-c2ccccc2)nc1Sc1ccc(F)cc1`, the melting point was 161 to 164 °C.
With `CCCc1nc(S(=O)(=O)N(c2c(Cl)cccc2Cl)S(=O)(=O)c2nc(CCC)n(-c3ccccc3)n2)nn1-c1ccccc1` the melting point was 262 to 264 °C.
`O=C(Nc1n[nH]c2nc(Oc3ccc(F)cc3F)ncc12)OCc1ccccc1` showed a melting point of 270 to 272 °C.
`O=C(c1ccc(-c2ccc(=O)[nH]n2)cc1)N1CCC[C@H]1CN1CCCC1` showed a melting point of 62 to 66 °C.
Work on `CC(C)(C)CCC(=O)c1ccc2cc(-c3ccc4c(Br)c(OCC(=O)O)ccc4c3)sc2c1` yielded a melting point of 246 to 247 °C.
In the case of `CC(C)[C@H](NC(=O)OCc1ccccc1)C(=O)NC(Cc1ccccc1)C(O)C(Cc1ccccc1)NC(=O)[C@@H](NC(=O)OCc1ccccn1)C(C)C` (stereo partly specified), the melting point is reported as 194 to 195 °C.
`C[C@H](NC(=O)[C@@H](C)NC(=O)[C@@H](N)CC(=O)O)C1CCCC1` showed a melting point of 204 to 205 °C.
`O=C1C=C(Nc2ccc(F)cc2)CCN1` showed a melting point of 195 to 198 °C.
`COc1ccc(S(=O)C(C(=O)NO)c2ccccc2)cc1` (stereo unspecified) showed a melting point of 135 °C.
For `Cn1c(COc2ccc(CC3SC(=O)N(C(c4ccccc4)(c4ccccc4)c4ccccc4)C3=O)cc2)nc2cccnc21` (stereo unspecified), the melting point was 97 to 102 °C.
Work on `CON(C)C(=O)c1cc(-n2c(Cl)nc(C(F)(F)F)cc2=O)c(F)cc1Cl` yielded a melting point of 183 °C.
With `C[Si](C)(C)CCCOC1CCN(c2ccc([N+](=O)[O-])cc2)C1` (stereo unspecified) the melting point was 68 °C.
With `C=CCCC(F)c1cccc(C2(c3ccc(OC(F)F)cc3)N=C(N)N(C)C2=O)c1` (stereo unspecified) the melting point was 50 to 55 °C.
`COc1ccc2[nH]cc3c2c1[C@@]1(C)OCCN(C)[C@@H]1C3` (relative stereo) gave a melting point of 200 to 202 °C.
In the case of `Cc1c(C(C)O)ssc1=S` (stereo unspecified), the melting point is reported as 79 to 80 °C.
`Nc1cccc2c1sc1c(Nc3cccc(Br)c3)ncnc12` gave a melting point of 216 to 217 °C.
With `CCCC(=O)OC1c2ccccc2C(=O)N1c1ccc2ccc(Cl)nc2n1` (stereo unspecified) the melting point was 140 °C.
With `CCCCCCCCCCCCCC(=O)Nc1ccc(Cl)c(NC(=CC(=O)OCC)OCC)c1` the melting point was 115 to 118 °C.
`COc1cccc2c(=O)c3c(OCC4CS4)cc(OCC4CS4)cc3oc12` (stereo unspecified) gave a melting point of 240 °C.
For `COc1cc2c(cc1F)C1(CO2)C(=O)N(Cc2ccccn2)c2ccccc21` (stereo unspecified), the melting point was 142 to 144 °C.
In the case of `COC(=O)c1ccc(Cn2c(=O)c3c(N4CCN(C)CC4)cc(Cl)cc3n(Cc3ccccc3)c2=O)cc1`, the melting point is reported as 90 to 94 °C.
With `COC(=O)C1(c2ccc(OCCN)cc2)CC1` the melting point was 119 to 122 °C.
Work on `CCCN(c1cccc2cc(-c3nccs3)[nH]c12)S(=O)(=O)c1cccs1` yielded a melting point of 130 to 131 °C.
For `CNC(=O)N(O)C(C)c1ccc(C)c(Br)c1` (stereo unspecified), the melting point was 107 to 108 °C.
Work on `CCOC(=O)c1cn(-c2cc(NC(=O)OC(C)(C)C)c(F)cc2F)c2cc(F)c(C)cc2c1=O` yielded a melting point of 205 to 207 °C.
In the case of `CCc1ccc2ncc(CO)c(OC(C)C)c2c1`, the melting point is reported as 43 to 46 °C.
For `CC(=O)N1Cc2c(n(-c3cccc(Cl)c3)c3ncccc3c2=O)C1`, the melting point was 170 to 173 °C.
`CCOC(=O)CCC(=O)c1cc(-c2ccccc2)nc2ccccc12` gave a melting point of 66 °C.
Work on `Nc1ccc(OS(=O)(=O)c2ccc(NCCO)cc2)cc1[N+](=O)[O-]` yielded a melting point of 180 °C.
`CC(C)c1cn2ccccc2c1S(=O)(=O)c1ccc(OCCCBr)cc1` showed a melting point of 133 °C.
With `Cn1c(C(F)(F)F)cc(=O)n(-c2cc(OCSc3ccccc3)c(Cl)cc2F)c1=O` the melting point was 91 to 94 °C.
For `CCCCC(O)(COc1ccc(C(=O)O)c(O)c1)c1ccc2c(c1)C(C)(C)CCC2(C)C` (stereo unspecified), the melting point was 142 to 143 °C.
`Cc1csc2nc(C(=O)O)cn12` gave a melting point of 196 to 197 °C.
Work on `O=C(O)c1ccc(OC(=O)c2ccc(O)c(C34CC5CC(CC(C5)C3)C4)c2)nc1` yielded a melting point of 112 to 113 °C.
`CC(C)(C)c1cc(CCC(=O)NCCOC(=O)CCc2cc(C(C)(C)C)c(O)c(C(C)(C)C)c2)cc(C(C)(C)C)c1O` showed a melting point of 151 to 154 °C.
With `CN1CCP(=O)(c2ccccc2)CC1` the melting point was 115 to 116 °C.
`CC(C)CCCNC1c2ccccc2C(=O)N1c1ccc2ccc(Cl)nc2n1` (stereo unspecified) gave a melting point of 131 °C.
Work on `Nc1nc2[nH]c(CCC#Cc3ccc(C(=O)N[C@@H](CCC(=O)O)C(=O)O)o3)cc2c(=O)[nH]1` yielded a melting point of 193 to 194 °C.
In the case of `COC(=O)[C@H](Cc1ccc(NC(=O)c2c(C)cccc2Cl)cc1)NC(=O)OC(C)(C)C`, the melting point is reported as 154 to 157 °C.
Work on `N#CCC(=O)Nc1ccc(-c2ncn(-c3ccc(OC(F)(F)F)cc3)n2)cc1` yielded a melting point of 250 to 252 °C.
Molecule `CC(=O)SCCN1C(=O)c2ccccc2C1=O` has a melting point of 112 to 114 °C.
`O=C1NC(=O)C(Oc2ccc3ccccc3c2)S1` (stereo unspecified) gave a melting point of 221 to 222 °C.
In the case of `C[C@H]1CN(c2ccc(C(F)(F)F)c(Cl)n2)CCN1C(=O)OC(C)(C)C`, the melting point is reported as 86 °C.
With `COC1Cc2ccc(F)cc2/C1=C/C(N)=O` (stereo unspecified) the melting point was 128 to 130 °C.
Work on `CC(C)(C)P1(=S)CCC1` yielded a melting point of 120 to 121 °C.
